Laboratory results from patent US20250228837A1, “(2S)-1-[4-(3,4-DICHLOROPHENYL)PIPERIDIN-1-YL]-3-[2-(5-METHYL-1,3,4-OXADIAZOL-2-YL)BENZO[B]FURAN-4-YLOXY] PROPAN-2-OL OR ITS METABOLITE FOR TREATING ANXIETY DISORDERS” (Minerva Neurosciences, Inc., priority 2016, published 2025).
“Also recorded” adds a separate entry of the source. Structures can show the parent of a compound that is named as a salt. Where two headings read alike, the source gives them in different places.

How the values were obtained:
[1] = system: adult subjects with MDD; assay: Phase 2a randomized, double-blind, placebo- and active-controlled study; anxiety by HAM-A over 6 weeks; format: in vivo, human; conditions: for speed of onset of the reduction in total HAM-A score: 0.5 mg dose compared with the 2.5 mg dose and other arms, Week 1 vs. Week 2; for reduction in severity of anxiety symptoms compared to placebo (change from baseline in total HAM-A score): MDD patients, ITT, once daily oral 0.5 mg or 2.5 mg, 6 weeks of treatment
Procedure: In an embodiment, the effect of the treatment is measured using the Hamilton Anxiety Scale (HAM-A). The subject is asked to rate the gravity of each item using a 5-level scale—from 0 to 4, where 0 being not present and 4 being severe. The results are then collated and tabulated to determine the severity of anxiety: a HAM-A score of <17 is mild anxiety, HAM-A score of 18-24 is mild to moderate anxiety, and HAM-A score of 25-30 is moderate to severe anxiety.
A phase 2a, multicenter, multinational, randomized, double-blind, placebo- and active-controlled parallel-group study was conducted to investigate the efficacy and safety of MIN-117 in adult subjects with MDD. One of the exploratory objectives of the study was to assess effects of MIN-117 compared to placebo on anxiety as measured by change from baseline in the Hamilton Anxiety Rating Scale (HAM-A) over 6 weeks of treatment.
The study consisted of a 4-week pre-treatment phase during which subjects were washed out from antidepressant medications or other psychotropics, followed by a 6-week treatment phase, and then an end of study (EOS) follow-up visit at approximately 2-weeks after the end of the treatment phase. MIN-117 capsules of 0.5 mg and 2.5 mg strength were used in the study. The capsules were size 4 made of white hard gelatin containing the drug substance, lactose, cornstarch, low substituted hydroxypropylcelullose and hydroxypropylcelullose, and purified water.
Eighty-four eligible subjects (met the DSM-5 diagnostic criteria for moderate to severe MDD, without psychotic features) were randomized in a 1:1:1:1 ratio, to receive once daily oral doses of placebo, MIN-117 at 0.5 mg, MIN-117 at 2.5 mg, or paroxetine at 20 mg as an active comparator for 6 weeks. Paroxetine is an antidepressant of the SSRI class and is used to treat MDD, OCD, PTSD, social anxiety disorder, panic disorder, GAD, premenstrual dysphoric disorder and menopausal hot flashes. The HAM-A scale was used to measure the severity of each subject's anxiety at screening, baseline, and weeks 1, 2, 4, 6 (or early withdrawal) and EOS.
Subjects had to meet all of the following inclusion criteria to be eligible for participation in this study: • 1. Subjects must be able to read and understand the consent forms, complete study-related procedures, and communicate with the study staff. • 2. Subjects must have provided written consent to participate in the study and understand that they are free to withdraw from the study at any time. • 3. Male or female subjects must be 18 to 65 years of age, inclusive, at Screening (Visit 1). • 4. Subjects have a body mass index (BMI) of ≥18 to ≤35 kg/m^2 [BMI=weight (kg)/height (m^2)] at Screening (Visit 1) • 5. Subjects must meet Diagnostic and Statistical Manual of Mental Disorders—Fifth Edition (DSM-5) criteria for diagnosis of moderate or severe depression without psychotic features (ICD-9 codes 296.32 & 296.33; ICD-10 codes F33.1 & F33.2, respectively) at Screening based on clinical assessment and on the MINI, v7.0. • 6. Subjects have a history of at least one previous episode of depression prior to the current episode. • 7. Current major depressive episode of at least 8 weeks in duration. • 8. Subjects must have a score of ≥30 on the investigator-rated MADRS at Screening (Visit 1) and Baseline (Visit 2a). • 9. Subjects must have a score of ≥4 on the investigator-rated CGI-S at Screening (Visit 1) and Baseline (Visit 2a). • 10. Subjects must be in good general health prior to study participation with no clinically relevant abnormalities as assessed by the investigator and determined by medical history, physical examination, blood chemistry, hematology, urinalysis, and electrocardiogram (ECG). • 11. […] Male subjects who are willing to use condom for the duration of the study and until 90 days after the last dose of the study, even if they have had vasectomy, and must inform their partners about taking an investigational medication. […]

[2] = target: T1, 5-HT1A receptor (Homo sapiens, UniProt P08908); conditions: in vitro; disclosed in U.S. Pat. No. 6,720,320; cited from earlier work
T1 sequence (P08908 1-422): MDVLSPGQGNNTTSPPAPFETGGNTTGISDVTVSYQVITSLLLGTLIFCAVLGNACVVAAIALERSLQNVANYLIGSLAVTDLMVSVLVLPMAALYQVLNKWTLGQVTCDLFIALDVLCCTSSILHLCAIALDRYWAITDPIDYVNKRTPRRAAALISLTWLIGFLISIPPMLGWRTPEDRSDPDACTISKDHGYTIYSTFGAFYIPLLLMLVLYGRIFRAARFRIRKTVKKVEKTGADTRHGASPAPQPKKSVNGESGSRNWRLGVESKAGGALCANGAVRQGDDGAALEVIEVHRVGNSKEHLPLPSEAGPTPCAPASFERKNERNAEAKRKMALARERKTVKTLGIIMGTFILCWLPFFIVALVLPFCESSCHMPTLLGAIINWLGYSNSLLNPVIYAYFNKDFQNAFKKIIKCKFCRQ

[3] = target: T1, 5-HT1A receptor; conditions: from U.S. Pat. No. 6,720,320 / Minerva Form 10K, cited from earlier work
[4] = target: serotonin reuptake (Homo sapiens, UniProt P31645); conditions: from U.S. Pat. No. 6,720,320 / Minerva Form 10K, cited from earlier work
[5] = target: 5-HT2A receptors (Homo sapiens, UniProt P28223); conditions: Minerva Form 10K, 14 Mar. 2016; cited from earlier work
[6] = target: dopamine reuptake (Homo sapiens, UniProt Q01959); conditions: Minerva Form 10K, 14 Mar. 2016; cited from earlier work
[7] = target: T2, α1A-adrenergic receptor (Homo sapiens, UniProt P35348); conditions: Minerva Form 10K, 14 Mar. 2016; cited from earlier work
T2 sequence (P35348 1-466): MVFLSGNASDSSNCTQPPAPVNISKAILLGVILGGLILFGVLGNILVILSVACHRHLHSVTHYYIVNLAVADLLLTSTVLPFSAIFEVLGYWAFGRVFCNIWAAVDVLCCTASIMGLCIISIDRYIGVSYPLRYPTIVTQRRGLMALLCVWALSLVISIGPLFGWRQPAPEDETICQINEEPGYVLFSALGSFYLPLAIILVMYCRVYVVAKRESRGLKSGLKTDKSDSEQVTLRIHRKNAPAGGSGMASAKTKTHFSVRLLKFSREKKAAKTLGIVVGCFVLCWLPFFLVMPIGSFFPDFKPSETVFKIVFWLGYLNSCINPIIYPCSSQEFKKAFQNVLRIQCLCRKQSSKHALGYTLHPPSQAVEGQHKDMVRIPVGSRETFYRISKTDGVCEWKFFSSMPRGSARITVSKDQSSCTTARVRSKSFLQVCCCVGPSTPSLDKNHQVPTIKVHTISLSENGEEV

[8] = target: T3, α1B-adrenergic receptor (Homo sapiens, UniProt P35368); conditions: Minerva Form 10K, 14 Mar. 2016; cited from earlier work
T3 sequence (P35368 1-520): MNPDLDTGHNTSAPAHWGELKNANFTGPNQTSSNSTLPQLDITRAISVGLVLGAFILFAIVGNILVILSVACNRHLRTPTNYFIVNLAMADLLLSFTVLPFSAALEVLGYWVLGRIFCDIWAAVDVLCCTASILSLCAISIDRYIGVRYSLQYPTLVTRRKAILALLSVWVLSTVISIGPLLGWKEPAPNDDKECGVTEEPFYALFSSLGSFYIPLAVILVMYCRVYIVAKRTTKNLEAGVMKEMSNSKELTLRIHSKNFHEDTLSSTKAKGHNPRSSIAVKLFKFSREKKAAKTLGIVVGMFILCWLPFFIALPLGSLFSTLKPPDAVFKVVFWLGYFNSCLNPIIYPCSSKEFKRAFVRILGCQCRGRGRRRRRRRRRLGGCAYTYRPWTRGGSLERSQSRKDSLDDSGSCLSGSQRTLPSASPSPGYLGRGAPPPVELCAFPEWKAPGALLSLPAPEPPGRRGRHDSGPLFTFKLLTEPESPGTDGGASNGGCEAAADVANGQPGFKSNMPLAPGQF

Sequence of serotonin reuptake (P31645 whole entry): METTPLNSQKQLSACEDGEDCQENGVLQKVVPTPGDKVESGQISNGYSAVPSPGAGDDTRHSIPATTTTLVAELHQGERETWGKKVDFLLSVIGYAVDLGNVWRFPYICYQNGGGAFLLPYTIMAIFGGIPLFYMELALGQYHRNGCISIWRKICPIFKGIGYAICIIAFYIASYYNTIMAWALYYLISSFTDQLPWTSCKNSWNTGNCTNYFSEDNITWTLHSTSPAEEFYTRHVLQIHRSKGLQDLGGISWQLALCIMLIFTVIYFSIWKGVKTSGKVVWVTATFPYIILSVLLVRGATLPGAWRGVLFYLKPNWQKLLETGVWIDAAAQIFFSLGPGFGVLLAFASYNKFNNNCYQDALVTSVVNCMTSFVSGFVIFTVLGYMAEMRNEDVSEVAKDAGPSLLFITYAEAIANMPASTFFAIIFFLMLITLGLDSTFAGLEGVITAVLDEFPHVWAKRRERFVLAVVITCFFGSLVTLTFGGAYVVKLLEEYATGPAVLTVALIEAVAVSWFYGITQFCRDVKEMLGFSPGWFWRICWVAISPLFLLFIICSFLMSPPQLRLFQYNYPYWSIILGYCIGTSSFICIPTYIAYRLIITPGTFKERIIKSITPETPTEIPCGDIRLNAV
Sequence of dopamine reuptake (Q01959 whole entry): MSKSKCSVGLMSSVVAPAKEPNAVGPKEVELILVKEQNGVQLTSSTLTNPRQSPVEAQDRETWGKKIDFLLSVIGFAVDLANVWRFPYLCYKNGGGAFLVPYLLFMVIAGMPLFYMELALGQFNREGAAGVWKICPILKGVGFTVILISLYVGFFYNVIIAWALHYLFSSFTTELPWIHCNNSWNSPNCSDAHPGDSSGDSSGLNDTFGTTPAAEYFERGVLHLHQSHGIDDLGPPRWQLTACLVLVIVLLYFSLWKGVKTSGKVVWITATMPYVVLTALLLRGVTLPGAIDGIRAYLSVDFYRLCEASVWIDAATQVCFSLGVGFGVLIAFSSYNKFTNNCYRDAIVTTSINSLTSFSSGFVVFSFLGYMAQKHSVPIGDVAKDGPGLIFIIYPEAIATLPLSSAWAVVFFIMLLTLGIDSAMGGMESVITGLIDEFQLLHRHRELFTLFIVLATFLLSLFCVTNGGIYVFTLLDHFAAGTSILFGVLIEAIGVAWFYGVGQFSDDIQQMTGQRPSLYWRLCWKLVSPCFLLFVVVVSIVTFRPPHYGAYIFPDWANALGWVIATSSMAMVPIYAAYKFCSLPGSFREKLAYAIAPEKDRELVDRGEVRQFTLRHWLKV
Sequence of 5-HT2A receptors (P28223 whole entry): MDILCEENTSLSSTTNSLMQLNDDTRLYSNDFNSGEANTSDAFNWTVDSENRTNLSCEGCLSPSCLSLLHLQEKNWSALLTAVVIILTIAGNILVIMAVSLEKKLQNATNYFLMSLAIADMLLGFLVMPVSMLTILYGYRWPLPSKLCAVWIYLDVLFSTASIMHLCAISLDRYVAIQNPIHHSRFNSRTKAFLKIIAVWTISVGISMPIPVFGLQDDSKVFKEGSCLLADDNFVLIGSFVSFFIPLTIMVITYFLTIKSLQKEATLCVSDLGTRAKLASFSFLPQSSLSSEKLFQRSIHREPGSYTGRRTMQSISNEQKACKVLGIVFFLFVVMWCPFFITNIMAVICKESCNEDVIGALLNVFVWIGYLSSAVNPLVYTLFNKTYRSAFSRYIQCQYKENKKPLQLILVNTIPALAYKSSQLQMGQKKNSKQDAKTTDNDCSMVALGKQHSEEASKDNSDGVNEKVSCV

Structure (SMILES) | speed of onset of the reduction in total HAM-A score [1] | reduction in severity of anxiety symptoms compared to placebo (change from baseline in total HAM-A score) [1] | affinity for the 5-HT1A receptor [2] | activity at the 5-HT1A receptor [3] | activity on serotonin (5-HT) reuptake [4] | speed of onset of the reduction in total HAM-A score ([1]; monohydrochloride) | time after starting therapy to a beneficial result over placebo ([1]; 0.5 mg total daily dose) | reduction in severity of anxiety symptoms compared to placebo (change from baseline in total HAM-A score) ([1]; monohydrochloride) | tolerability ([1]; both doses (0.5 mg and 2.5 mg once daily, 6 weeks)) | ability of both doses to reduce severity of symptoms, 0.5 mg vs 2.5 mg ([1]; by Week 6) | activity at the 5-HT1A receptor ([3]; monohydrochloride) | activity at the 5-HT2A receptor [5] | activity on serotonin (5-HT) reuptake ([4]; monohydrochloride) | activity on dopamine reuptake [6] | affinity for the α1A-adrenergic receptor [7] | affinity for the α1B-adrenergic receptor [8]
Cc1nnc(-c2cc3c(OC[C@@H](O)CN4CCC(c5ccc(Cl)c(Cl)c5)CC4)cccc3o2)o1 [Compound I, (2S)-1-[4-(3,4-dichlorophenyl)piperidin-1-yl]-3-[2-(5-methyl-1,3,4-oxadiazol-2-yl)benzo[b]furan-4-yloxy]propan-2-ol] | more rapid reduction | reduced anxiety symptoms compared to placebo; also recorded: capable of reducing the severity of one or more anxiety symptoms | selective affinity | antagonistic activity | 5-HT reuptake inhibitory activity | – | – | – | – | – | – | – | – | – | – | –
Cc1nnc(-c2cc3c(OC[C@@H](O)CN4CCC(c5ccc(Cl)c(Cl)c5)CC4)cccc3o2)o1 [MIN-117, (2S)-1-[4-(3,4-dichlorophenyl)piperidin-1-yl]-3-[2-(5-methyl-1,3,4-oxadiazol-2-yl)benzo[b]furan-4-yloxy]propan-2-ol monohydrochloride] | – | – | – | – | – | fastest onset | 2 weeks | reduces anxiety symptoms; also recorded: capable of reducing the severity of one or more anxiety symptoms | well tolerated | comparable | antagonist | antagonist | antagonist | antagonist | having affinity | having affinity
OCc1nnc(-c2cc3c(OC[C@@H](O)CN4CCC(c5ccc(Cl)c(Cl)c5)CC4)cccc3o2)o1 [Compound II, (2S)-1-[4-(3,4-dichlorophenyl)piperidin-1-yl]-3-[2-(5-hydroxymethyl-1,3,4-oxadiazol-2-yl)benzo[b]furan-4-yloxy]propan-2-ol] | – | – | selective affinity | antagonistic activity | 5-HT reuptake inhibitory activity | – | – | – | – | – | – | – | – | – | – | –
